Measured values as given in US12648928B2, “Intervention strategy for prevention or treatment of diabetes mellitus, autoimmune disease, inflammatory disease or cardiovascular disease” (ACADEMISCH MEDISCH CENTRUM, priority 2020, dated 2026).

Biological target: T1, AhR (Homo sapiens, UniProt P35869)
T1 sequence (P35869 11-848): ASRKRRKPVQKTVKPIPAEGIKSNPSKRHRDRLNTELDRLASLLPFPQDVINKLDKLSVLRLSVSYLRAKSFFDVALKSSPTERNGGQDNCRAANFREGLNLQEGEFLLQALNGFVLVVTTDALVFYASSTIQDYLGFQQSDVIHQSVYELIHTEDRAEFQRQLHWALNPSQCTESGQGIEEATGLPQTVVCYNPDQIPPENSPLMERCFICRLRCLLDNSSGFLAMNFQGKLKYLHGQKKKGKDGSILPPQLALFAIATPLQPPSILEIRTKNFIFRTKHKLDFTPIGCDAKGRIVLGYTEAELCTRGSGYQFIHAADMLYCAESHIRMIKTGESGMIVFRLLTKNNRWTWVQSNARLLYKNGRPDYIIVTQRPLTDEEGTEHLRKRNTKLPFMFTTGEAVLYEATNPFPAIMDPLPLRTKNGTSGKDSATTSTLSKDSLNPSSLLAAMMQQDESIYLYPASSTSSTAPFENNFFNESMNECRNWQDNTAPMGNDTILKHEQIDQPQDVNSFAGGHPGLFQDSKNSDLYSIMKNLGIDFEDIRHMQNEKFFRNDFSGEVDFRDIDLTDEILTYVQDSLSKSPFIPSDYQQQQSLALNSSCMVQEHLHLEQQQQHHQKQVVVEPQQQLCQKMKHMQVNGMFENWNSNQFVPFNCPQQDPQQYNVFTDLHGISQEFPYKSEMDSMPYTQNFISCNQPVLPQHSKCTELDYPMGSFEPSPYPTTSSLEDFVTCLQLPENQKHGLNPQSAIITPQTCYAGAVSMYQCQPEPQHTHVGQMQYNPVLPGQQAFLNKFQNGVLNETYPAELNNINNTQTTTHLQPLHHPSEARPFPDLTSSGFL
Experiment: AhR activation

activation of AhR: does not act through activation of AhR
SMILES: N[C@@H](Cc1c[nH]c2cc(Br)ccc12)C(=O)O [6-BT, 6-bromotryptophan]
